For data set [1], the system named is SK-N-BE(2) neuroblastoma cell line. Put plainly: Cell viability (images, MTT) of SK-N-BE(2) neuroblastoma cell line. The format is cell-based, human. The protocol: (§1) Methods for cell viability: Cells were plated in 96 wells/6 wells cell culture plates. After 24 hrs of plating, the treatments (added in the growth medium) were conducted. The following assays were performed after 24 hrs of the treatments (day 2). (FIGS. 15A, 17-20, 24-27)
(§2) MTT assay methods. For the MTT assay, […] of 5 mg/ml MTT-tetrazolium salts in PBS was added to each well containing the growth medium. After 3 hours of incubation, the medium was removed and the formazan crystals were dissolved by adding DMSO. The absorption of the formazan solution was measured using a spectrophotometer at a wavelength of 570 nm. FIGS. 15B, 21-22.
The SK-N-BE(2) neuroblastoma cell line was exposed to control, AP39 (AP) at 40 or 60 μM, Doxorubicin at 2.5 or 20 μM, thiolactate at 10 mM, AP39 and Doxorubicin, AP39 and thiolactate, or Doxorubicin and Thiolactate. […] FIGS. 17, 21, 24-25.

Data set [2] concerns 786-O cells renal cancer cells. In words: Cell viability of 786-O renal cancer cells. The data set is classed as cell-based. The protocol:
as §1, §2
786-O cells renal cancer cells were exposed to control, AP39 (AP) at 40 or 60 μM, Doxorubicin at 2.5 or 20 μM, thiolactate at 10 mM, AP39 and Doxorubicin, AP39 and thiolactate, or Doxorubicin and Thiolactate. […] FIGS. 18 and 21.

For data set [3], the system named is A549 lung cancer cells. In words: Cell viability of A549 lung cancer cells. The data set is classed as cell-based. The protocol:
as §1, §2
A549 lung cancer cells were exposed to control, AP39 (AP) at 40 or 60 μM, Doxorubicin at 2.5 or 20 μM, thiolactate at 10 mM, AP39 and Doxorubicin, AP39 and thiolactate, or Doxorubicin and Thiolactate. […] FIGS. 19 and 21.

Data set [4] deals with H1299 lung cancer cells. Put plainly: Cell viability of H1299 lung cancer cells. The format is cell-based. The protocol: as §1, §2
H1299 lung cancer cells were exposed to control, AP39 (AP) at 40 or 60 μM, Doxorubicin at 2.5 or 20 μM, thiolactate at 10 mM, AP39 and Doxorubicin, AP39 and thiolactate, or Doxorubicin and Thiolactate. […] FIGS. 20-22.

Data set [5] relates to MCF7 breast cancer cells. In words: Cell viability (MTT, crystal violet) of MCF7 breast cancer cells. The data set is classed as cell-based. Here is the method: as §1, §2
Crystal Violet (CV) assay. For the CV Staining assay, cells were stained with 0.5% crystal violet in 30% ethanol for 10 minutes at room temperature after removal of the medium. The cells were lysed in a 1% SDS (sodium dodecyl sulfate) solution. The absorbance of the solution was measured using a spectrophotometer at a wavelength of 595 nm. FIG. 27.
MCF7 breast cancer cells were exposed to control, AP39 (AP) at 40 or 60 μM, Doxorubicin at 2.5 or 20 μM, thiolactate at 10 mM, AP39 and Doxorubicin, AP39 and thiolactate, or Doxorubicin and Thiolactate. […] FIGS. 26-27.

The subject of data set [6] is H9C2 cells. Put plainly: Mitochondrial ROS, MitoSox Red, H9C2. The format is cell-based, Rat. Particulars: H9C2, Dox alone. Here is the method:
AP39 treatment also ameliorated Dox toxicity in a model of Rat cardiomyoblast cell line, H9C2. […] There was a narrow window of protection, as 30 μM and 50 μm doses were not as strong as the 40 μM dose (FIGS. 5A and B) in conferring protection. […] Note that Dox caused an apoptotic phenotype in correlation with ROS levels (FIG. 5F, Dox lane). This in vitro AP39 protection is modest when compared to the in vivo scenario. This difference may be due to rapid clearance of toxic metabolites (for instance, higher lactate production, FIG. 10D) and better oxygen supply (AP39 stimulated OCR, FIG. 7C) in vivo and lack of such sophistication in vitro.

Data set [7] has as its system H9C2 cells. In words: Mitochondrial H2S levels (AzMAC) and morphology (mitotracker Red) in H9C2 cells. Particulars: H9C2, single agent vs control. The format is cell-based, Rat. From the text: Note that white arrow heads and yellow arrows compare and contrast no-H2S: fusion and H2S-presence: fission scenarios in the same image AP39 treatment lane.
Mitochondrial fission was correlated with H2S levels. To investigate the impact of Dox on mitochondrial biogenesis and mitochondrial H2S levels, H9C2 cells were used in combination with H2S sensitive dye AzMAC and mitotracker Red dye as reported previously^8. […] Further, H2S levels (yellow arrows) highly correlated with a dotted appearance of mitochondria, implying that H2S causes mitochondrial fission, which is a prerequisite for eliminating damaged mitochondria^49.

Data set [8] deals with Myc/Max-regulated transcripts. Put plainly: RNAseq analysis in H9C2 cell line. The format is cell-based, Rat. Particulars: H9C2, Dox alone. The protocol: The coverage among groups are indicated.
Next, to interrogate mechanisms of AP39 protection against DIC, RNAseq analysis was performed. There was sufficient coverage of the whole transcriptome among the groups (FIG. 8A).

The nature of data set [9]: 13C-glucose isotope tracing and GC-MS metabolite quantification. The format is cell-based. Here is the method:
Stable isotope (13C glucose) tracer studies. Heatmap.
To this end, 13C-glucose flux/isotope tracing and quantified metabolites through GC-MS were examined at 16 hrs and 24 hrs after the treatments. Glucose, glutamine and lactate were also measured in supernatants at these time points. […] With the exception of glycolytic metabolites, the remaining metabolic pathways (poor labeling) were non-operational after Dox treatment (FIG. 10A).
When considered AP39-mediated activation of AMPK, H2S is selectively halting energy consuming anabolic pathways, such as protein synthesis (also, lipid, AMPK inhibits […], a rate limiting lipid synthesizing enzyme, FIGS. 7A and B), as observed before^41, thus leading to accumulation of amino acids and is enhancing TCA cycle through AMPK activation. The net result is better energy management with AP39/H2S treatment.

Data set [10] concerns hiPSC-CMs. Put plainly: DIC in hiPSC-CMs (Annexin V, MitoSox Red). The format is cell-based, human.
Data set [11] deals with SK-N-BE(2) and SK-N-BE(1) cell lines. Particulars: previous study; cited from earlier work.
For data set [12] the following is noted: cited from earlier work.
[13] abbreviates: AP39 40 or 60 μM, thiolactate 10 mM, 24 hrs.
Where [14] appears, read: combination with Doxorubicin 2.5 μM.

As for `CC(S)C(=O)O` (stereo not drawn) [thiolactate, Thiolactate], the “cell killing, agent alone” value in data set [1] (setting [13]) is given as “able to kill SK-N-BE(2) cells”; in data set [2] (setting [13]), “able to kill renal cancer cells”; in data set [3] (setting [13]), “able to kill lung cancer cells”; in data set [4] (setting [13]), “able to kill lung cancer cells”; in data set [5] (setting [13]), “able to kill breast cancer cells”. Further, the “potency of low doses of Doxorubicin” value in [1] (setting [14]), in data set [2] (setting [14]), in [3] (setting [14]), in [4] (setting [14]) and in data set [5] (setting [14]) was “able to increase the potency of low doses of Doxorubicin” each time.
Take `COc1cccc2c1C(=O)c1c(O)c3c(c(O)c1C2=O)C[C@@](O)(C(=O)CO)C[C@@H]3O[C@H]1C[C@H](N)[C@H](O)[C@H](C)O1` [Dox, Doxorubicin]: in data set [6], the “mitochondrial ROS levels” value is “elevating damaging ROS levels”. Besides, in data set [7], the “mitochondrial H2S levels (AzMAC)” value is recorded as “significantly reduced mitochondrial H2S production” and the “mitochondrial morphology (fission / fusion)” value is listed as “mitochondrial fusion”. In addition, the Myc transcription result in data set [8] is “attenuated Myc transcription”. Also, in data set [9] (16 hrs and 24 hrs), the “Serine and glycine 13C labeling” value is given as “highly labeled”. Also, the “abundance of most metabolites (GC-MS)” value in data set [9] (24 hrs of Dox treatment) is “present in abundant amounts”. Also, the “DIC in hiPSC-CMs at lower dose of Dox” value in [10] (2.5 μM Dox, donor, data not showed) is on record as “exhibited resistance to DIC”. In addition, the “cell death in hiPSC-CMs” value in data set [10] (7.5 μM Dox, 48 hrs) was “significant cell death”. Moreover, in data set [1] (AP39 used along with Dox), the “effective Dox dose” value amounted to 2.5 µM. Moreover, the “IC70 of Dox” value in [1] (Dox alone, 24 hrs) came out at 20 µM. In addition, the “IC90 for SK-N-BE(2) relative to IC90 for SK-N-BE(1)” value in data set [11] is listed as 9230 times. Moreover, in data set [12] (after Dox treatment), the “late cardiac dysfunction incidence” value is 16% and the sub-clinical disease rate result is recorded as “over 50%”. In addition, the “Cumulative left ventricular systolic dysfunction (LVSD) incidence rate” value in [12] (within 18 months of Dox treatment) is on record as 12%.

The values are drawn from patent US20210299150A1, “AP39 IMPACT ON MITOCHONDRIA, METABOLISM, GENE TRANSCRIPTION REGULATION, CARDIOTOXICITY PROTECTION AND CANCER TREATMENT” (priority 2020, published 2021).
